According to patent publication US11945798B2, “Substituted aminopyridine compounds as EGFR inhibitors” (YUHAN CORPORATION, priority 2021, dated 2024):
Where two headings read alike, the source gives them in different places.

Tests used:
EGFR del19/T790M/C797S = EGFR del19/T790M/C797S (Homo sapiens, UniProt P00533, C797S/DEL746-750/T790M); test: Biochemical EGFR kinase assay (Lance Ultra TR-FRET), del19/T790M/C797S
Procedure: (§1) Biochemical EGFR kinase assays were conducted using Lance Ultra time-resolved fluorescence resonance energy transfer (TR-FRET) technology from Perkin-Elmer. Compounds of the invention were initially diluted to 20 mM in 100% DMSO for storage and made into kinase buffer solution to create a compound concentration ranging from 0.003 μM and 10 μM.
(§2) Each kinase reactions were incubated at room temperature for 1 hour and then stopped by the addition of 4 μL of stop solution (10 mM EDTA). The specific Europium-labeled-anti-phosphopeptide antibody (PerkinElmer, AD0069) diluted in LANCE detection buffer was then added to a final concentration of 2 nM. After 60 minutes incubation at room temperature the LANCE signal was measured on an EnVision Multilabel Reader (Perkin-Elmer). Excitation wavelength was set at 320 nm and emission monitored at 615 nm (donor) and 665 nm (acceptor). The IC50 values were determined using GraphPad prism software (GraphPad Software, Inc., San Diego, CA, USA).

EGFR L858R/T790M/C797S = EGFR L858R/T790M/C797S (Homo sapiens, UniProt P00533, C797S/L858R/T790M); test: Biochemical EGFR kinase assay (Lance Ultra TR-FRET), L858R/T790M/C797S
Chain of EGFR L858R/T790M/C797S (P00533 25-1210 T790M/C797S/L858R): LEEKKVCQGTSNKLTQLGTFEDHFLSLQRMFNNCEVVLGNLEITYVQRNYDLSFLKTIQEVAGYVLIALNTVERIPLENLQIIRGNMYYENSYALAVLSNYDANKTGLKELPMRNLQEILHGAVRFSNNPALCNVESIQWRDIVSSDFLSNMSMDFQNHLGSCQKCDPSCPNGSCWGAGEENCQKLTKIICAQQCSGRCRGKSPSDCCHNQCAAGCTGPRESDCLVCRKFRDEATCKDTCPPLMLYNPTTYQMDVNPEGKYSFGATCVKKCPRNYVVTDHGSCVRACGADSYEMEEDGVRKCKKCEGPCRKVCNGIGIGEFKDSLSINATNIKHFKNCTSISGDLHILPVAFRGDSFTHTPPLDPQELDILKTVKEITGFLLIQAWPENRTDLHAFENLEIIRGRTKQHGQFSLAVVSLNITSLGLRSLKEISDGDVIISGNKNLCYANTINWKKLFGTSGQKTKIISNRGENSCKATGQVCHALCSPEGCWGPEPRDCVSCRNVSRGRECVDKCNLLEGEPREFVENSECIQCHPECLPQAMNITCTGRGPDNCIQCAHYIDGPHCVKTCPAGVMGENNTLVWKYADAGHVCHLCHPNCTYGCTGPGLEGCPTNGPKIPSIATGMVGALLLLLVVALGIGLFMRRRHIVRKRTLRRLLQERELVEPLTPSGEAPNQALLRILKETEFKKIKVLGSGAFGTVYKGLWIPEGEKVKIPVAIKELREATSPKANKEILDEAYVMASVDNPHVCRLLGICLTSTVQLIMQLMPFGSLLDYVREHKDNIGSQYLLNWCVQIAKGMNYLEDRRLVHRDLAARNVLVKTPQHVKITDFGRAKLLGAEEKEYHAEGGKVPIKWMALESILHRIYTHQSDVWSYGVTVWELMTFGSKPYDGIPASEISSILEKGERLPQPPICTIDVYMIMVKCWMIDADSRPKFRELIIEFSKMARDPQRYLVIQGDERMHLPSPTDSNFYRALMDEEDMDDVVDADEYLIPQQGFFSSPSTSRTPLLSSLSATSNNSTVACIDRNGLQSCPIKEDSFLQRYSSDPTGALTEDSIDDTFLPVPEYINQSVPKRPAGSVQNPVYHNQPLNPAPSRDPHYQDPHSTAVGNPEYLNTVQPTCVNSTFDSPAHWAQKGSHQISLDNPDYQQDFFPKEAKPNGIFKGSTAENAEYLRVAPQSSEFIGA
Procedure: as §1, §2

EGFR del19/C797S = EGFR del19/C797S (Homo sapiens, UniProt P00533, C797S/DEL746-750); test: Biochemical EGFR kinase assay (Lance Ultra TR-FRET), del19/C797S
Procedure: as §1, §2

EGFR L858R/C797S = EGFR L858R/C797S (Homo sapiens, UniProt P00533, C797S/L858R); test: Biochemical EGFR kinase assay (Lance Ultra TR-FRET), L858R/C797S
Chain of EGFR L858R/C797S (P00533 25-1210 C797S/L858R): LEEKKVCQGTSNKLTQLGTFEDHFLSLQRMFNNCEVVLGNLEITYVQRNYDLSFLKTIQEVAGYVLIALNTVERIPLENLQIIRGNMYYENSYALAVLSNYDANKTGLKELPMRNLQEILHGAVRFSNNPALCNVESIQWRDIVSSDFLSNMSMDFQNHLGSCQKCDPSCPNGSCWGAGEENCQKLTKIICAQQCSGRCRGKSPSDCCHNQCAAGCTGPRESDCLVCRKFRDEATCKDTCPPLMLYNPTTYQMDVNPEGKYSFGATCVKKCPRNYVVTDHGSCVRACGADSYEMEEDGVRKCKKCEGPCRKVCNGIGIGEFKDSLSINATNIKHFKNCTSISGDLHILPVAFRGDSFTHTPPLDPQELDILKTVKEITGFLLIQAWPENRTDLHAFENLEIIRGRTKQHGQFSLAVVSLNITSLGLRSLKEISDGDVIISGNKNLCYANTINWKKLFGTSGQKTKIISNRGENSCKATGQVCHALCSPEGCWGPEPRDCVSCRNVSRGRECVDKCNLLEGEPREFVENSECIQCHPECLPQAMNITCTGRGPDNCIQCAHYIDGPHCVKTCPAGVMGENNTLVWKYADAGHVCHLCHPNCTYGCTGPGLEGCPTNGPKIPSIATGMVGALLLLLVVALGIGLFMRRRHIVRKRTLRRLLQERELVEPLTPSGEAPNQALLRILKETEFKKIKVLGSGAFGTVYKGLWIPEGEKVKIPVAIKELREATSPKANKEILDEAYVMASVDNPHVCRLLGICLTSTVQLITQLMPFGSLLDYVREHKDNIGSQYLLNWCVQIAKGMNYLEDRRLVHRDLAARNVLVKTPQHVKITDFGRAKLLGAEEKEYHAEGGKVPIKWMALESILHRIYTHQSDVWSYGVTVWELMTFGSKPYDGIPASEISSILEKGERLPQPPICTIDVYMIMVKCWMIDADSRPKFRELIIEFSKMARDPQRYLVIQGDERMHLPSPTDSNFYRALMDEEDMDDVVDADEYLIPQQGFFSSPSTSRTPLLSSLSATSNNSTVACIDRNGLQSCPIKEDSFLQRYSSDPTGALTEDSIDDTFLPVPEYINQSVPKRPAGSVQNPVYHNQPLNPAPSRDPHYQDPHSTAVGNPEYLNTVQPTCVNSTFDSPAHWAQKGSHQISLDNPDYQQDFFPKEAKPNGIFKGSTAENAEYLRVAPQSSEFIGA
Procedure: as §1, §2

EGFR wildtype (WT) = EGFR wildtype (WT) (Homo sapiens, UniProt P00533); test: Biochemical EGFR kinase assay (Lance Ultra TR-FRET), wildtype
Chain of EGFR wildtype (WT) (P00533 25-1210): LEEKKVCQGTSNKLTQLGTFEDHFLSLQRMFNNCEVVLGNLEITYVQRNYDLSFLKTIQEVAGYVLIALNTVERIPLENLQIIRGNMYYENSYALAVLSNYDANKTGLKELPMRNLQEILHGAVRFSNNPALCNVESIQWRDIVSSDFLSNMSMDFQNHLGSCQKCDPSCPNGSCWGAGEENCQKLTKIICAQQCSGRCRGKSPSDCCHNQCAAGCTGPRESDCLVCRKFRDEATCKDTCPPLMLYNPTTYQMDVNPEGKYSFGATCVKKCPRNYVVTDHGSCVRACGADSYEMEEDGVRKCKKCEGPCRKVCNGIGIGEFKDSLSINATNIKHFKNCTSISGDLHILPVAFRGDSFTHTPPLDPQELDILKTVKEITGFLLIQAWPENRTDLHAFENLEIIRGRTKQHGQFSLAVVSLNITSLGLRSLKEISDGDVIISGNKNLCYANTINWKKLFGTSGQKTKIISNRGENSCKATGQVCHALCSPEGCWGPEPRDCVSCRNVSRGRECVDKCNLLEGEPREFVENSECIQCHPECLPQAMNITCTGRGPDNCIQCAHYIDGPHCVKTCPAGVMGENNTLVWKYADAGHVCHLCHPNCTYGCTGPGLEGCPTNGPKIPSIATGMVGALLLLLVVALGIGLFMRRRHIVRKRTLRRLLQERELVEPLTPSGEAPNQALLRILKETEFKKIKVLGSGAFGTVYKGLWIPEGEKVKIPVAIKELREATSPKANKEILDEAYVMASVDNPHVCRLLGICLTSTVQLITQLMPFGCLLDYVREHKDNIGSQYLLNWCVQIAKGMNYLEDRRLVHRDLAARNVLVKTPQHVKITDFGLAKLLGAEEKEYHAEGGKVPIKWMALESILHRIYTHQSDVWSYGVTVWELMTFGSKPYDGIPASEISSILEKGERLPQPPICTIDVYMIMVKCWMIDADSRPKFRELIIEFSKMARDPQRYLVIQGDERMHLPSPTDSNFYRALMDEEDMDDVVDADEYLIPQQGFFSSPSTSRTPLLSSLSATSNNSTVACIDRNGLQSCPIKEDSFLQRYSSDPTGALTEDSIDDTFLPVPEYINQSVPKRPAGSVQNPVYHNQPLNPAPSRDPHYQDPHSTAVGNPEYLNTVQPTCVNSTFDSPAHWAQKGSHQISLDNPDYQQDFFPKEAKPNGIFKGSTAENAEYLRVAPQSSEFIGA
Procedure: as §1, §2

[1] = Km ATP, read-out: IC50 del19/T790M/C797S (nM) Km ATP
[2] = Km ATP, read-out: IC50 L858R/T790M/C797S (nM) Km ATP
[3] = Km ATP, read-out: IC50 del19/C797S (nM) Km ATP
[4] = Km ATP, read-out: IC50 L858R/C797S (nM) Km ATP
[5] = Km ATP, read-out: IC50 WT (nM) Km ATP
[6] = IC50 del19/T790M/C797S (nM) 100 μM ATP, 100 μM ATP
[7] = IC50 L858R/T790M/C797S (nM) 100 μM ATP, 100 μM ATP
[8] = IC50 del19/C797S (nM) 100 μM ATP, 100 μM ATP
[9] = IC50 L858R/C797S (nM) 100 μM ATP, 100 μM ATP
[10] = IC50 WT (nM) 100 μM ATP, 100 μM ATP

Chain of EGFR del19/T790M/C797S (P00533 with tags, fused parts or gaps DEL746-750/T790M/C797S): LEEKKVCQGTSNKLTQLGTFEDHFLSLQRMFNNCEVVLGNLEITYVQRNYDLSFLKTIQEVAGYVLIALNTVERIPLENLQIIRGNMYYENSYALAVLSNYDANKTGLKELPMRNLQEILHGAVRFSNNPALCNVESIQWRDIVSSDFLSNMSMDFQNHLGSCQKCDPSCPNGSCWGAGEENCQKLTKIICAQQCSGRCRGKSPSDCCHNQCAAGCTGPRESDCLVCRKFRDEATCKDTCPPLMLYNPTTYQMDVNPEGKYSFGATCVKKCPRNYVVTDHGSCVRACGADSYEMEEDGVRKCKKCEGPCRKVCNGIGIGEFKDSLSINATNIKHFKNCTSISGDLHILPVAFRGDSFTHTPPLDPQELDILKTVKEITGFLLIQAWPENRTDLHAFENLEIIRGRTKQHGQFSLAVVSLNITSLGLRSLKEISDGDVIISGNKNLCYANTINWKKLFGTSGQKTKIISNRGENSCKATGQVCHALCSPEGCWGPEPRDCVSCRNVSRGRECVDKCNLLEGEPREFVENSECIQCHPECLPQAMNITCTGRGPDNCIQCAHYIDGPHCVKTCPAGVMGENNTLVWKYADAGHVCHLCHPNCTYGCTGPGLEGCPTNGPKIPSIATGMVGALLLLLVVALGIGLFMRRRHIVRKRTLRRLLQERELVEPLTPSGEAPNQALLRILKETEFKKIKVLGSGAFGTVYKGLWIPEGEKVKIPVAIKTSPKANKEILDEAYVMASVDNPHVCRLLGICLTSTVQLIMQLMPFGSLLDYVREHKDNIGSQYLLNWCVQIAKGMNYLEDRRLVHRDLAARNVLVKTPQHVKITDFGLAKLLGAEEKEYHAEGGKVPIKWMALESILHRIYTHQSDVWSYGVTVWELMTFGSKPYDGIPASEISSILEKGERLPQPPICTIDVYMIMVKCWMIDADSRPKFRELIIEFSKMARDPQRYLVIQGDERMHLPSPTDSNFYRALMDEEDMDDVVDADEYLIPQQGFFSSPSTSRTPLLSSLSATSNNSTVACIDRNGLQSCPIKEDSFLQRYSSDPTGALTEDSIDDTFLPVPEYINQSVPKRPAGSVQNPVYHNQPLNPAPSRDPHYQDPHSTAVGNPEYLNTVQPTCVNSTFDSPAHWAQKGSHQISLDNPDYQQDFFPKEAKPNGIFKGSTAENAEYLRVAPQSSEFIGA

SMILES	IC50 (EGFR del19/T790M/C797S; [1]) [nM]	IC50 (EGFR L858R/T790M/C797S; [2]) [nM]	IC50 (EGFR del19/C797S; [3]) [nM]	IC50 (EGFR L858R/C797S; [4]) [nM]	IC50 (EGFR wildtype (WT); [5]) [nM]	IC50 (EGFR del19/T790M/C797S; [6]) [nM]	IC50 (EGFR L858R/T790M/C797S; [7]) [nM]	IC50 (EGFR del19/C797S; [8]) [nM]	IC50 (EGFR L858R/C797S; [9]) [nM]	IC50 (EGFR wildtype (WT); [10]) [nM]
CC(C)Nc1cc(Nc2ccnc(-c3cnn(S(=O)(=O)C4CC4)c3)n2)ncc1C(=O)C1CC1 [Example 1, Cyclopropyl(6-((2-(1-(cyclopropylsulfonyl)-1H-pyrazol-4-yl)pyrimidin-4-yl)amino)-4-(isopropylamino)pyridin-3-yl)methanone]	3.8	1.1	4.5	84.3	566					
C[C@@H](CCO)Nc1cc(Nc2ccnc(-c3cnn(S(=O)(=O)C4CC4)c3)n2)ncc1C(=O)C1CC1 [Example 8, (S)-Cyclopropyl(6-((2-(1-(cyclopropylsulfonyl)-1H-pyrazol-4-yl)pyrimidin-4-yl)amino)-4-((4-hydroxybutan-2-yl)amino)pyridin-3-yl)methanone]	0.4	1.4	61.6	292	471					
O=C(c1cnc(Nc2ccnc(-c3cnn(S(=O)(=O)C4CC4)c3)n2)cc1NCCCO)C1CC1 [Example 9, Cyclopropyl(6-((2-(1-(cyclopropylsulfonyl)-1H-pyrazol-4-yl)pyrimidin-4-yl)amino)-4-((3-hydroxypropyl)amino)pyridin-3-yl)methanone]	0.7	2.5	70.7	479	528					
O=C(c1cnc(Nc2ccnc(-c3cnn(S(=O)(=O)C4CC4)c3)n2)cc1NC1CCC(CO)C1)C1CC1 (stereo not drawn) [Example 13, Cyclopropyl(6-((2-(1-(cyclopropylsulfonyl)-1H-pyrazol-4-yl)pyrimidin-4-yl)amino)-4-((3-(hydroxymethyl)cyclopentyl)amino)pyridin-3-yl)methanone]	0.2	0.2	4.5	61.7	28.2					
CN(C)Cc1ccc(CNc2cc(Nc3ccnc(-c4cnn(C(F)F)c4)n3)ncc2C(=O)C2CC2)cc1 [Example 16, Cyclopropyl(6-((2-(1-(difluoromethyl)-1H-pyrazol-4-yl)pyrimidin-4-yl)amino)-4-((4-((dimethylamino)methyl)benzyl)amino)pyridin-3-yl)methanone]	2.3	0.4	13.2	30.8	176					
CN(C)Cc1ccc(CNc2cc(Nc3ccnc(-c4cnn(S(=O)(=O)C5CC5)c4)n3)ncc2C(=O)C2CC2)s1 [Example 20, Cyclopropyl(6-((2-(1-(cyclopropylsulfonyl)-1H-pyrazol-4-yl)pyrimidin-4-yl)amino)-4-(((5-((dimethylamino)methyl)thiophen-2-yl)methyl)amino)pyridin-3-yl)methanone]	2.2	3.9	415	59.2	239					
CN(C)C1CCN(CCNc2cc(Nc3ccnc(-c4cnn(S(=O)(=O)C5CC5)c4)n3)ncc2C(=O)C2CC2)CC1 [Example 21, Cyclopropyl(6-((2-(1-(cyclopropylsulfonyl)-1H-pyrazol-4-yl)pyrimidin-4-yl)amino)-4-((2-(4-(dimethylamino)piperidin-1-yl)ethyl)amino)pyridin-3-yl)methanone]	0.4	1.1	72.3	16.4	63.5					
O=C(c1cnc(Nc2ccnc(-c3cnn(S(=O)(=O)C4CC4)c3)n2)cc1N[C@H]1CCC[C@H](O)C1)C1CC1 [Example 22, Cyclopropyl(6-((2-(1-(cyclopropylsulfonyl)-1H-pyrazol-4-yl)pyrimidin-4-yl)amino)-4-(((1S,3S)-3-hydroxycyclohexyl)amino)pyridin-3-yl)methanone]						0.9	1.1	14	33.2	> 10000
CC(C)(CO)CNc1cc(Nc2ccnc(-c3cnn(S(=O)(=O)C4CC4)c3)n2)ncc1C(=O)C1CC1 [Example 28, Cyclopropyl(6-((2-(1-(cyclopropylsulfonyl)-1H-pyrazol-4-yl)pyrimidin-4-yl)amino)-4-((3-hydroxy-2,2-dimethylpropyl)amino)pyridin-3-yl)methanone]						2.6	32.1	176	234	> 10000
O=C(c1cnc(Nc2ccnc(-c3cnn(S(=O)(=O)C4CC4)c3)n2)cc1NCCC1(O)CC1)C1CC1 [Example 29, Cyclopropyl(6-((2-(1-(cyclopropylsulfonyl)-1H-pyrazol-4-yl)pyrimidin-4-yl)amino)-4-((2-(1-hydroxycyclopropyl)ethyl)amino)pyridin-3-yl)methanone]						1.8	10	3.5	120	> 10000
CN(C)C[C@H]1CC[C@H](CNc2cc(Nc3ccnc(-c4cnn(C5CC5)c4)n3)ncc2C(=O)C2CC2)CC1 [Example 60, Cyclopropyl(6-((2-(1-cyclopropyl-1H-pyrazol-4-yl)pyrimidin-4-yl)amino)-4-((((1r,4r)-4-((dimethylamino)methyl)cyclohexyl)methyl)amino)pyridin-3-yl)methanone]	5.4	3.5		115	430					

Further lines, results first:

IC50 (EGFR del19/T790M/C797S; [1]) [nM]	IC50 (EGFR L858R/T790M/C797S; [2]) [nM]	IC50 (EGFR del19/C797S; [3]) [nM]	IC50 (EGFR L858R/C797S; [4]) [nM]	IC50 (EGFR wildtype (WT); [5]) [nM]	IC50 (EGFR del19/T790M/C797S; [6]) [nM]	IC50 (EGFR L858R/T790M/C797S; [7]) [nM]	IC50 (EGFR del19/C797S; [8]) [nM]	IC50 (EGFR L858R/C797S; [9]) [nM]	IC50 (EGFR wildtype (WT); [10]) [nM]	SMILES
					0.7	0.5	2.4	6.4	3410	O=C(c1cnc(Nc2ccnc(-c3cnn(S(=O)(=O)C4CC4)c3)n2)cc1N[C@H]1CC[C@@H](O)CC1)C1CC1 [Example 23, Cyclopropyl(6-((2-(1-(cyclopropylsulfonyl)-1H-pyrazol-4-yl)pyrimidin-4-yl)amino)-4-(((1s,4s)-4-hydroxycyclohexyl)amino)pyridin-3-yl)methanone]
					0.9	1	11.8	29.4	> 10000	O=C(c1cnc(Nc2ccnc(-c3cnn(S(=O)(=O)C4CC4)c3)n2)cc1N[C@H]1CC[C@@H](O)C1)C1CC1 [Example 25, Cyclopropyl(6-((2-(1-(cyclopropylsulfonyl)-1H-pyrazol-4-yl)pyrimidin-4-yl)amino)-4-(((1S,3R)-3-hydroxycyclopentyl)amino)pyridin-3-yl)methanone]
					2.9	3.3	55.3	118	> 10000	O=C(c1cnc(Nc2ccnc(-c3cnn(S(=O)(=O)C4CC4)c3)n2)cc1N[C@@H]1CC[C@@H](O)C1)C1CC1 [Example 26, Cyclopropyl(6-((2-(1-(cyclopropylsulfonyl)-1H-pyrazol-4-yl)pyrimidin-4-yl)amino)-4-(((1R,3R)-3-hydroxycyclopentyl)amino)pyridin-3-yl)methanone]
					1.2	2	51.1	54.7	> 10000	CN[C@H]1CC[C@@H](Nc2cc(Nc3ccnc(-c4cnn(S(=O)(=O)C5CC5)c4)n3)ncc2C(=O)C2CC2)CC1 [Example 32, Cyclopropyl-(6-((2-(1-(cyclopropylsulfonyl)-1H-pyrazol-4-yl)pyrimidin-4-yl)amino)-4-(((1s,4s)-4-(methylamino)cyclohexyl)amino)pyridin-3-yl)methanone]
	1.1	17.2	42.8	1170		6.9	8.8	157	> 10000	CC(C)(O)[C@H]1CC[C@@H](Nc2cc(Nc3ccnc(-c4cnn(S(=O)(=O)C5CC5)c4)n3)ncc2C(=O)C(F)F)CC1 [Example 50, 1-(6-((2-(1-(Cyclopropylsulfonyl)-1H-pyrazol-4-yl)pyrimidin-4-yl)amino)-4-(((1s,4s)-4-(2-hydroxypropan-2-yl)cyclohexyl)amino)pyridin-3-yl)-2,2-difluoroethan-1-one]
	1.1	45.4	47.1	1240		4.5	18.9	407	> 10000	O=C(c1cnc(Nc2ccnc(-c3cnn(S(=O)(=O)C4CC4)c3)n2)cc1N[C@H]1CC[C@@H](NCCF)CC1)C(F)F [Example 51, 1-(6-((2-(1-(Cyclopropylsulfonyl)-1H-pyrazol-4-yl)pyrimidin-4-yl)amino)-4-(((1s,4s)-4-((2-fluoroethyl)amino)cyclohexyl)amino)pyridin-3-yl)-2,2-difluoroethan-1-one]
